Data as given in patent EP4722213A1, “NITROGEN-CONTAINING FUNCTIONAL GROUP-SUBSTITUTED PYRIDAZINOPYRIDONE DERIVATIVE AND USE THEREOF” (Sichuan Huiyu Pharmaceutical Co., Ltd., priority 2023, dated 2024).
pIC50: −log10 of the molar value. Where a name gives a salt, the structure may show the parent alone.

Biological target: T1, SOS1 (Homo sapiens, UniProt Q07889)
T1 sequence (Q07889 1-1333): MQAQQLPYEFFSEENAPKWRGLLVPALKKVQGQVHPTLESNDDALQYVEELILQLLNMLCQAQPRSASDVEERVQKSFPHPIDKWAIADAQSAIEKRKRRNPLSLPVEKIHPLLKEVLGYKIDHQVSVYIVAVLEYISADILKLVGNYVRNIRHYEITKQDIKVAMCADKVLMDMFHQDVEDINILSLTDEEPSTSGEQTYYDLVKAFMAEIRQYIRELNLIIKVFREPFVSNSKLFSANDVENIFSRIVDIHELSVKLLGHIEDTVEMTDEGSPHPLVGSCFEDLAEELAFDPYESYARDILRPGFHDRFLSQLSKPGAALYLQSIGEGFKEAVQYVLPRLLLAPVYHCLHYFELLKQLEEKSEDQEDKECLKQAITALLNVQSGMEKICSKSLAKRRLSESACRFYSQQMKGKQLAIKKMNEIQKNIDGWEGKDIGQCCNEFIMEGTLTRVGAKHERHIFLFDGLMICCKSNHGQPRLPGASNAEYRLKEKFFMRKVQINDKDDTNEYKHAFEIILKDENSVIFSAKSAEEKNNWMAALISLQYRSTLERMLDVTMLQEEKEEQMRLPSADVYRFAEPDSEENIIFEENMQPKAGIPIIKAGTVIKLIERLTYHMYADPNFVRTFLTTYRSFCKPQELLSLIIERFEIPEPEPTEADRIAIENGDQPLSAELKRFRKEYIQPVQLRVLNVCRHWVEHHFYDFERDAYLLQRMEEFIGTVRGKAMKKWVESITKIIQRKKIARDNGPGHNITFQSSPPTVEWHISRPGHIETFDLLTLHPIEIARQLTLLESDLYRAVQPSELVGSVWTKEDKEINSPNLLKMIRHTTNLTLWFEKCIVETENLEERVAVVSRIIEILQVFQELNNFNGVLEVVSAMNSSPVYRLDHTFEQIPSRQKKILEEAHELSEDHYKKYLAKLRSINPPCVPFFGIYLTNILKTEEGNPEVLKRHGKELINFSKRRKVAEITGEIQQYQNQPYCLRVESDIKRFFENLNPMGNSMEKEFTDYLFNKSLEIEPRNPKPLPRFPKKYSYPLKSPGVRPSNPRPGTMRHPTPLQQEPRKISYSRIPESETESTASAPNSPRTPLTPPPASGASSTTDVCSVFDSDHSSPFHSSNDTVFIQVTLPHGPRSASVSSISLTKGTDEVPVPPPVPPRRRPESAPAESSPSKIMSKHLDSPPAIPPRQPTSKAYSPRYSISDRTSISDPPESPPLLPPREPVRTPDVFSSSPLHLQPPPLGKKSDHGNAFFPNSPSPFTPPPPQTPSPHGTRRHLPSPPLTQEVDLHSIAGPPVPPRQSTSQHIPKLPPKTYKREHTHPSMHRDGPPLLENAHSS
Experiment: biochemical

| SMILES | pIC50 |
| --- | --- |
| C[C@@H](Nc1nnc(N2CCOCC2)c2cc(=O)n(C3(C)CC3)cc12)c1cccc(C(F)F)c1F [Example 7, (R)-4-((1-(3-(difluoromethyl)-2-fluorophenyl)ethyl)amino)-6-(1-methylcyclopropyl)-1-morpholinopyrido[3 ,4-d]pyridazin-7(6H)-one] | 7.75 |
| C[C@@H](Nc1nnc(N2CCC(CO)C2)c2cc(=O)n(C3(C)CC3)cc12)c1cccc(C(F)F)c1F (stereo partly drawn) [Example 128, 4-(((R)-1-(3-(difluoromethyl)-2-fluorophenyl)ethyl)amino)-1-(3-(hydroxymethyl)pyrrolidin-1-yl)-6-(1-methylcyclopropyl) pyrido[3,4-d]pyridazin-7(6H)-one] | 8.38 |
| C[C@@H](Nc1nnc(N2CC3C(C2)C3(C)C)c2cc(=O)n(C3(C)CC3)cc12)c1cccc(C(F)F)c1F (stereo partly drawn) [Example 189, 4-(((R)-1-(3-(difluoromethyl)-2-fluorophenyl)ethyl)amino)-1-(6,6-dimethyl-3-azabicyclo[3.1.0]hexan-3-yl)-6-(1-methylcyclopropyl) pyrido[3,4-d]pyridazin-7(6H)-one] | 8.37 |
| CC(C)N1CCN(c2nnc(N[C@H](C)c3cccc(C(F)F)c3F)c3cn(N4CC5CCCC5C4)c(=O)cc23)CC1 (stereo partly drawn) [Example 149, 4-(((R)-1-(3-(difluoromethyl)-2-fluorophenyl)ethyl)amino)-6-(hexahydrocyclopenta[c]pyrrol-2(1H)-yl)-1-(4-isopropylpiperazin-1-yl)pyrido[3,4-d]pyridazin-7(6H)-one] | 8.07 |
| C[C@@H](Nc1nnc(N2CCN(CC3CC3)CC2)c2cc(=O)n(C3CC(F)(F)C3)cc12)c1cccc(C(F)F)c1F [Example 107, (R)-6-(3,3-difluorocyclobutyl)-4-((1-(3-(difluoromethyl)-2-fluorophenyl)ethyl)amino)-1-(4-(cyclopropylmethyl)piperazin-1-yl)pyrido[3,4-d]pyridazin-7(6H)-one] | 8.38 |
| CC(C)N1CCN(c2nnc(N[C@H](C)c3cccc(C(F)(F)F)c3)c3cn(C4(C)CC4)c(=O)cc23)CC1 [Example 155, (R)-1-(4-isopropylpiperazin-1-yl)-6-(1-methylcyclopropyl)-4-((1-(3-(trifluoromethyl)phenyl)ethyl)amino)pyr ido[3,4-d]pyridazin-7(6H)-one formate] | 8.25 |
| C[C@@H](Nc1nnc(N2CCC(F)(F)C2)c2cc(=O)n(C3CC3)cc12)c1cccc(C(F)F)c1F [Example 14, (R)-6-cyclopropyl-4-((1-(3-(difluoromethyl)-2-fluorophenyl)ethyl)amino)-1-(3,3-difluoropyrrolidin-1-yl)pyrido[3,4-d]pyridazin-7(6H)-one] | 7.75 |
| C[C@@H](Nc1nnc(-n2cccn2)c2cc(=O)n(C3CC3)cc12)c1cccc(C(F)F)c1F [Example 30, (R)-6-cyclopropyl-4-((1-(3-(difluoromethyl)-2-fluorophenyl)ethyl)amino)-1-(1H-pyrazol-1-yl) pyrido[3,4-d]pyridazin-7(6H)-one] | 7.47 |
| Cc1c([C@@H](C)Nc2nnc(N3CCN(CC4CC4)CC3)c3cc(=O)n(C4(C)CC4)cc23)cccc1C(F)(F)F [Example 93, (R)-1-(4-(cyclopropylmethyl)piperazin-1-yl)-4-((1-(2-methyl-3-(trifluoromethyl)phenyl)ethyl)amino)-6-(1-methylcyclopropyl) pyrido[3,4-d]pyridazin-7(6H)-one] | 8.27 |
| Cc1c(C#N)cccc1[C@@H](C)Nc1nnc(N2CC[C@H](CO)C2)c2cc(=O)n(N3CC4CCCC4C3)cc12 (stereo partly drawn) [Example 166, 3-((1R)-1-((6-(hexahydrocyclopenta[c]pyrrol-2(1H)-yl)-1-((S)-3-(hydroxymethyl)pyrrolidin-1-yl)-7-oxo-6,7-dihydropyrido[3,4-d]pyridazin-4-yl)amino)ethyl)-2-methylbenzonitrile] | 8.01 |
